Measured values from PubChem BioAssay (NCI).
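Where inhibition never reached the appropriate level, the endpoint shown equals the highest concentration tested. Otherwise, values were interpolated linearly from a five-concentration, 48-hour dose response in 96-well plates. Here, GI50 denotes the concentration required for 50% inhibition of growth. The concentration for full growth arrest is given as TGI.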

Key:
Experiment in all cases: growth of human tumour cells (NCI), 48 h
OVCAR-3 ovarian = test system: OVCAR-3 ovarian
SF-539 CNS = test system: SF-539 CNS
DMS 273 small cell lung = test system: DMS 273 small cell lung
SN12C renal = test system: SN12C renal
HOP-18 NSCLC = test system: HOP-18 NSCLC
RXF-631 renal = test system: RXF-631 renal
SNB-19 CNS = test system: SNB-19 CNS
HOP-62 NSCLC = test system: HOP-62 NSCLC
U251 CNS = test system: U251 CNS
HCT-15 colon = test system: HCT-15 colon
NCI-H460 lung = test system: NCI-H460 lung
SW-620 colon = test system: SW-620 colon
UO-31 renal = test system: UO-31 renal
SK-MEL-2 melanoma = test system: SK-MEL-2 melanoma
M14 melanoma = test system: M14 melanoma
ACHN renal = test system: ACHN renal
TK-10 renal = test system: TK-10 renal
OVCAR-4 ovarian = test system: OVCAR-4 ovarian
SF-295 CNS = test system: SF-295 CNS
KM12 colon = test system: KM12 colon
RPMI-8226 leukemia = test system: RPMI-8226 leukemia
A549 NSCLC = test system: A549 NSCLC
HCT-116 colon = test system: HCT-116 colon
OVCAR-5 ovarian = test system: OVCAR-5 ovarian
XF 498 CNS = test system: XF 498 CNS
COLO 205 colon = test system: COLO 205 colon
UACC-257 melanoma = test system: UACC-257 melanoma
DLD-1 colon = test system: DLD-1 colon
HOP-92 NSCLC = test system: HOP-92 NSCLC
SNB-78 CNS = test system: SNB-78 CNS
MALME-3M melanoma = test system: MALME-3M melanoma
CAKI-1 renal = test system: CAKI-1 renal
NCI-H226 lung = test system: NCI-H226 lung
KM20L2 colon = test system: KM20L2 colon
EKVX NSCLC = test system: EKVX NSCLC
IGROV1 ovarian = test system: IGROV1 ovarian
SF-268 CNS = test system: SF-268 CNS
HT29 colon = test system: HT29 colon
LOX IMVI melanoma = test system: LOX IMVI melanoma
CCRF-CEM leukemia = test system: CCRF-CEM leukemia
M19-MEL melanoma = test system: M19-MEL melanoma
SK-MEL-28 melanoma = test system: SK-MEL-28 melanoma
SNB-75 CNS = test system: SNB-75 CNS
NCI-H23 lung = test system: NCI-H23 lung
MOLT-4 leukemia = test system: MOLT-4 leukemia
786-0 renal = test system: 786-0 renal
DMS 114 small cell lung = test system: DMS 114 small cell lung
UACC-62 melanoma = test system: UACC-62 melanoma
SK-MEL-5 melanoma = test system: SK-MEL-5 melanoma
SK-OV-3 ovarian = test system: SK-OV-3 ovarian
A498 renal = test system: A498 renal
K-562 leukemia = test system: K-562 leukemia
HCC-2998 colon = test system: HCC-2998 colon
OVCAR-8 ovarian = test system: OVCAR-8 ovarian
RXF 393 renal = test system: RXF 393 renal
SR leukemia = test system: SR leukemia
LXFL 529 NSCLC = test system: LXFL 529 NSCLC
HL-60(TB) leukemia = test system: HL-60(TB) leukemia
NCI-H522 lung = test system: NCI-H522 lung

## CC(=O)NN1C(=O)C(Cc2ccccc2)c2ccccc21 (centres undefined)
OVCAR-3 ovarian
  TGI: > 100 µM
SF-539 CNS
  TGI: > 100 µM
DMS 273 small cell lung
  TGI: > 100 µM
SN12C renal
  TGI: > 100 µM
HOP-18 NSCLC
  TGI: > 100 µM
RXF-631 renal
  TGI: > 100 µM
SNB-19 CNS
  TGI: > 100 µM
HOP-62 NSCLC
  TGI: > 100 µM
U251 CNS
  TGI: > 100 µM
HCT-15 colon
  TGI: > 100 µM
NCI-H460 lung
  TGI: > 100 µM
SW-620 colon
  TGI: > 100 µM
UO-31 renal
  TGI: > 100 µM
SK-MEL-2 melanoma
  TGI: > 100 µM
M14 melanoma
  TGI: > 100 µM
ACHN renal
  TGI: > 100 µM
TK-10 renal
  TGI: > 100 µM
OVCAR-4 ovarian
  TGI: > 100 µM
SF-295 CNS
  TGI: > 100 µM
KM12 colon
  TGI: > 100 µM
RPMI-8226 leukemia
  TGI: > 100 µM
A549 NSCLC
  TGI: > 100 µM
HCT-116 colon
  TGI: > 100 µM
OVCAR-5 ovarian
  TGI: > 100 µM
XF 498 CNS
  TGI: > 100 µM
COLO 205 colon
  TGI: > 100 µM
UACC-257 melanoma
  TGI: > 100 µM
DLD-1 colon
  TGI: > 100 µM
HOP-92 NSCLC
  TGI: > 100000 nM
SNB-78 CNS
  TGI: > 100 µM
MALME-3M melanoma
  TGI: > 100 µM
CAKI-1 renal
  TGI: > 100000 nM
NCI-H226 lung
  TGI: > 100 µM
KM20L2 colon
  TGI: > 100 µM
EKVX NSCLC
  TGI: > 100 µM
IGROV1 ovarian
  TGI: > 100 µM
SF-268 CNS
  TGI: > 100 µM
HT29 colon
  TGI: > 100 µM
LOX IMVI melanoma
  TGI: > 100 µM
CCRF-CEM leukemia
  TGI: > 100 µM
M19-MEL melanoma
  TGI: > 100 µM
SK-MEL-28 melanoma
  TGI: > 100 µM
SNB-75 CNS
  TGI: > 100 µM
NCI-H23 lung
  TGI: > 100 µM
MOLT-4 leukemia
  TGI: > 100 µM
786-0 renal
  TGI: > 100 µM
DMS 114 small cell lung
  TGI: > 100 µM
UACC-62 melanoma
  TGI: > 100 µM
SK-MEL-5 melanoma
  TGI: > 100 µM
SK-OV-3 ovarian
  TGI: > 100 µM
A498 renal
  TGI: > 100 µM
K-562 leukemia
  TGI: > 100 µM
HCC-2998 colon
  TGI: > 100 µM
OVCAR-8 ovarian
  TGI: > 100 µM

## COc1ccc(OC(C)C(=O)O)c2c(=O)ccccc12 (centres undefined)
OVCAR-3 ovarian
  TGI: > 100 µM
SF-539 CNS
  TGI: > 100 µM
RXF 393 renal
  TGI: > 100000 nM
DMS 273 small cell lung
  TGI: > 100 µM
SN12C renal
  TGI: > 100 µM
RXF-631 renal
  TGI: > 100 µM
SNB-19 CNS
  TGI: > 100 µM
HOP-62 NSCLC
  TGI: > 100 µM
U251 CNS
  TGI: > 100 µM
HCT-15 colon
  TGI: > 100 µM
NCI-H460 lung
  TGI: > 100 µM
SW-620 colon
  TGI: > 100 µM
UO-31 renal
  TGI: > 100 µM
SK-MEL-2 melanoma
  TGI: > 100 µM
M14 melanoma
  TGI: > 100 µM
ACHN renal
  TGI: > 100 µM
TK-10 renal
  TGI: > 100 µM
OVCAR-4 ovarian
  TGI: > 100 µM
SF-295 CNS
  TGI: > 100 µM
SR leukemia
  TGI: > 100 µM
KM12 colon
  TGI: > 100 µM
RPMI-8226 leukemia
  TGI: > 100 µM
A549 NSCLC
  TGI: > 100 µM
OVCAR-5 ovarian
  TGI: > 100 µM
XF 498 CNS
  TGI: > 100 µM
LXFL 529 NSCLC
  TGI: > 100000 nM
COLO 205 colon
  TGI: > 100 µM
UACC-257 melanoma
  TGI: > 100 µM
DLD-1 colon
  TGI: > 100 µM
SNB-78 CNS
  TGI: > 100 µM
MALME-3M melanoma
  TGI: > 100 µM
NCI-H226 lung
  TGI: > 100 µM
KM20L2 colon
  TGI: > 100 µM
EKVX NSCLC
  TGI: > 100 µM
IGROV1 ovarian
  TGI: > 100 µM
HL-60(TB) leukemia
  TGI: > 100000 nM
SF-268 CNS
  TGI: > 100 µM
HT29 colon
  TGI: > 100 µM
NCI-H522 lung
  TGI: > 100000 nM
LOX IMVI melanoma
  TGI: > 100 µM
CCRF-CEM leukemia
  TGI: > 100 µM
M19-MEL melanoma
  TGI: > 100 µM
SK-MEL-28 melanoma
  TGI: > 100 µM
SNB-75 CNS
  TGI: > 100 µM
NCI-H23 lung
  TGI: > 100 µM
MOLT-4 leukemia
  TGI: > 100 µM
786-0 renal
  TGI: > 100 µM
DMS 114 small cell lung
  TGI: > 100 µM
UACC-62 melanoma
  TGI: > 100 µM
SK-MEL-5 melanoma
  TGI: > 100 µM
SK-OV-3 ovarian
  TGI: > 100 µM
A498 renal
  TGI: > 100 µM
K-562 leukemia
  TGI: > 100 µM
HCC-2998 colon
  TGI: > 100 µM
OVCAR-8 ovarian
  TGI: > 100 µM

## CC[PH+](CC)CC.[Cl][Au]
OVCAR-3 ovarian
  GI50: 1890 nM
  TGI: 3.42 µM
SF-539 CNS
  GI50: 2350 nM
  TGI: 7.36 µM
RXF 393 renal
  GI50: 447 nM
  TGI: 1660 nM
DMS 273 small cell lung
  GI50: 4.77 µM
  TGI: 22.1 µM
SN12C renal
  GI50: 1820 nM
  TGI: 3.55 µM
HOP-18 NSCLC
  GI50: 1640 nM
  TGI: 3 µM
SNB-19 CNS
  GI50: 2260 nM
  TGI: 6.14 µM
HOP-62 NSCLC
  GI50: 19.4 µM
  TGI: 33.7 µM
U251 CNS
  GI50: 1950 nM
  TGI: 5.14 µM
HCT-15 colon
  GI50: 1310 nM
  TGI: 3.17 µM
NCI-H460 lung
  GI50: 16.2 µM
  TGI: 47.9 µM
SW-620 colon
  GI50: 567 nM
  TGI: 1.98 µM
UO-31 renal
  GI50: 6.21 µM
  TGI: 10.7 µM
SK-MEL-2 melanoma
  GI50: 1380 nM
  TGI: 2.95 µM
M14 melanoma
  GI50: 1170 nM
  TGI: 2.53 µM
ACHN renal
  GI50: 1610 nM
  TGI: 3.32 µM
TK-10 renal
  GI50: 2000 nM
  TGI: 3.51 µM
OVCAR-4 ovarian
  GI50: 1470 nM
  TGI: 2.97 µM
SF-295 CNS
  GI50: 4.32 µM
  TGI: 8.88 µM
KM12 colon
  GI50: 11.6 µM
  TGI: 26 µM
RPMI-8226 leukemia
  GI50: 1030 nM
  TGI: 3.84 µM
A549 NSCLC
  GI50: 15.5 µM
  TGI: 44.4 µM
HCT-116 colon
  GI50: 1840 nM
  TGI: 3.59 µM
OVCAR-5 ovarian
  GI50: 15.2 µM
  TGI: 28.5 µM
XF 498 CNS
  GI50: 1370 nM
  TGI: 2.67 µM
LXFL 529 NSCLC
  GI50: 481 nM
  TGI: 1070 nM
COLO 205 colon
  GI50: 1850 nM
  TGI: 5.79 µM
UACC-257 melanoma
  GI50: 1090 nM
  TGI: 2.36 µM
DLD-1 colon
  GI50: 1280 nM
  TGI: 2.93 µM
HOP-92 NSCLC
  GI50: 1280 nM
  TGI: 2720 nM
SNB-78 CNS
  GI50: 1650 nM
  TGI: 5.93 µM
MALME-3M melanoma
  GI50: 1270 nM
  TGI: 2.56 µM
CAKI-1 renal
  GI50: 1180 nM
  TGI: 2640 nM
NCI-H226 lung
  GI50: 4.49 µM
  TGI: 9.32 µM
KM20L2 colon
  GI50: 4.25 µM
  TGI: 8.73 µM
EKVX NSCLC
  GI50: 1420 nM
  TGI: 2.91 µM
IGROV1 ovarian
  GI50: 2640 nM
  TGI: 7.15 µM
HL-60(TB) leukemia
  GI50: < 46.9 nM
  TGI: 278 nM
SF-268 CNS
  GI50: 1510 nM
  TGI: 3.35 µM
HT29 colon
  GI50: 3.84 µM
  TGI: 8.96 µM
NCI-H522 lung
  GI50: 122 nM
  TGI: 310 nM
LOX IMVI melanoma
  GI50: 1400 nM
  TGI: 2.91 µM
CCRF-CEM leukemia
  GI50: 216 nM
  TGI: 1.33 µM
M19-MEL melanoma
  GI50: 1080 nM
  TGI: 6.56 µM
SK-MEL-28 melanoma
  GI50: 780 nM
  TGI: 2.35 µM
SNB-75 CNS
  GI50: 2300 nM
  TGI: 6.99 µM
NCI-H23 lung
  GI50: 1680 nM
  TGI: 3.42 µM
MOLT-4 leukemia
  GI50: 682 nM
  TGI: 2.69 µM
786-0 renal
  GI50: 1420 nM
  TGI: 2.74 µM
UACC-62 melanoma
  GI50: 1160 nM
  TGI: 2.63 µM
SK-MEL-5 melanoma
  GI50: 1140 nM
  TGI: 2.44 µM
SK-OV-3 ovarian
  GI50: 16.4 µM
  TGI: 30 µM
K-562 leukemia
  GI50: 319 nM
  TGI: 1.19 µM
HCC-2998 colon
  GI50: 6.78 µM
  TGI: 12 µM
OVCAR-8 ovarian
  GI50: 2190 nM
  TGI: 5.21 µM
